Data reported in patent US4699901A, “Diacyl derivatives of glycerylphosphorylcholine, their preparation, and antihyperlipidemic compositions” (Neopharmed SpA, priority 1984, dated 1987).

Tests used:
[1] = system: levels of acetylcholine in the cortex; assay: experimental model in the mouse of the presinaptic neurochemical damage of Alzheimer disease (Mantione); format: in vivo; settings: Alzheimer model (Mantione et al.)
[2] = system: cholesteryl ester hydrolysis and synthesis (acyl-CoA: cholesterol-acyltransferase); settings: cited from earlier work
[3] = system: cholesterol and triglycerides; assay: hyperlipidemie test induced in the rat by the administration of Triton WR 1330; format: in vivo; settings: Triton induced hyperlipidemia, at the minimum dose of 37.5 mg/kg p.os
Text: The bis(pyridyl-3-carboxilate) esters of formula (I) show an antidislipemic activity higher than that of nicotinic acid.

L(alpha) glycerylphosphorylcholine bis(pyridyl-3-carboxilate) calcium salt
inhibition of the regional diminution of the levels of acetylcholine in the cortex [1]: inhibits, in a dose-answer form, the regional diminution of the levels of acetylcholine in the cortex

CCCCC/C=C\C/C=C\CCCCCCCC(=O)OC[C@H](COP(=O)([O-])OCC[N+](C)(C)C)OC(=O)CCCCCCC/C=C\C/C=C\CCCCC [polienoic phosphatidylcholine, glyceril phosphorylcholine Dilinoleate]
anti-aterogenic action [2]: An anti-aterogenic action | hydrolysis of cholesteryl ester [2]: an increase of the hydrolysis of cholesteryl ester | synthesis of cholesteryl esters from acyl-CoA: cholesterol-acyltransferase [2]: a reduction of the synthesis of cholesteryl esters

C[N+](C)(C)CCOP(=O)([O-])OC[C@@H](COC(=O)c1cccnc1)OC(=O)c1cccnc1 [optically active form L(alpha), L(alpha) glycerylphosphorylcholine bis(pyridyl-3-carboxilate)]
inhibition of cholesterol [3]: 50% | inhibition of triglycerides [3]: 50%
